Laboratory results from US20240368115A1, “REGULATOR CONTAINING TRICYCLIC DERIVATIVE, PREPARATION METHOD THEREFOR AND APPLICATION THEREOF” (SHUJING BIOPHARMA CO., LTD, priority 2021, published 2024).

Tests used:
Format in all cases: cell-based
D2S receptor = target: T1, D2S receptor (Homo sapiens, UniProt P14416); assay: D2S receptor cAMP agonist test; settings: HEK293 cell strain stably expressing D2S receptor
T1 construct: expressed in transfected cells

5-HT1A receptor = target: T2, 5-HT1A receptor (Homo sapiens, UniProt P08908); assay: 5-HT1A receptor cAMP agonist test; settings: HEK293 cell strain stably expressing 5-HT1A receptor
T2 construct: expressed in transfected cells
T2 sequence (P08908 1-422): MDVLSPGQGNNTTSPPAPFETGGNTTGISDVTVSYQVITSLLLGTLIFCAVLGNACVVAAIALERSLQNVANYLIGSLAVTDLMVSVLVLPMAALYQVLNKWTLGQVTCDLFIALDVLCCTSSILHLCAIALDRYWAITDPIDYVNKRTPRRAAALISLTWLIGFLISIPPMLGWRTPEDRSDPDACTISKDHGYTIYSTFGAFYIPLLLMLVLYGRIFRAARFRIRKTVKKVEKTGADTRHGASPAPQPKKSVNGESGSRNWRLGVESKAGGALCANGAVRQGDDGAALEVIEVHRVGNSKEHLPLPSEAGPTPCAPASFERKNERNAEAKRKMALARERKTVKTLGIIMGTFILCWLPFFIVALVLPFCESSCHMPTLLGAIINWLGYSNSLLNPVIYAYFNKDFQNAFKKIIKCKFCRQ

5-HT2A receptor = 5-HT2A receptor (Homo sapiens, UniProt P28223); assay: Calcium flux test for 5-HT2A receptor; settings: CHO cell strain stably expressing 5-HT2A receptor
5-HT2A receptor, sequence (P28223 whole entry): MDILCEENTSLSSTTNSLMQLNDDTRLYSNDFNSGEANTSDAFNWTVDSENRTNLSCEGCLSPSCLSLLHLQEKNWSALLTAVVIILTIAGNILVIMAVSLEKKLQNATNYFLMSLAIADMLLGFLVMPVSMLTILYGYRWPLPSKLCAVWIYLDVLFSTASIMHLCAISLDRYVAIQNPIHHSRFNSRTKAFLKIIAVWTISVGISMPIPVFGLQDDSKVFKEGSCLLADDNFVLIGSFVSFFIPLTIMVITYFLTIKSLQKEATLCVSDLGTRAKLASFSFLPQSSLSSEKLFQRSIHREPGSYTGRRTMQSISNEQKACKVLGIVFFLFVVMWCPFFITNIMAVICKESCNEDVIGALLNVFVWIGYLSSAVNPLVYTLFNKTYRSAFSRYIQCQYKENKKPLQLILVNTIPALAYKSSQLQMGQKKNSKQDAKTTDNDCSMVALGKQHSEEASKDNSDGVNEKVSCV

D2L receptor = target: T3, D2L receptor (Homo sapiens, UniProt P14416); assay: D2L receptor cAMP agonist test; settings: HEK293 cell strain stably expressing D2L receptor
T3 construct: expressed in transfected cells
T3 sequence (P14416 whole entry): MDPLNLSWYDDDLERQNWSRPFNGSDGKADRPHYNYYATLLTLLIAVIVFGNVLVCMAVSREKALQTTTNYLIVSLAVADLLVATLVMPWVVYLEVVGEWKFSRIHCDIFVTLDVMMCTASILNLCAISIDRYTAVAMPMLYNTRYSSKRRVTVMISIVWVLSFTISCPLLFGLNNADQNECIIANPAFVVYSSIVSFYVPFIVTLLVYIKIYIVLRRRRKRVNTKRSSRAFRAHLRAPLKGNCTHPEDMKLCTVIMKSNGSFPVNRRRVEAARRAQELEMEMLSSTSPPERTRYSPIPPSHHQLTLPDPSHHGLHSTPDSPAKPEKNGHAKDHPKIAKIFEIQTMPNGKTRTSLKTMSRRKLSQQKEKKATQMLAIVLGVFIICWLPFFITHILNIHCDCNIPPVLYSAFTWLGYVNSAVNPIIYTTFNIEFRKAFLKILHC

T1 sequence (P14416 1-414 isoform P14416-2): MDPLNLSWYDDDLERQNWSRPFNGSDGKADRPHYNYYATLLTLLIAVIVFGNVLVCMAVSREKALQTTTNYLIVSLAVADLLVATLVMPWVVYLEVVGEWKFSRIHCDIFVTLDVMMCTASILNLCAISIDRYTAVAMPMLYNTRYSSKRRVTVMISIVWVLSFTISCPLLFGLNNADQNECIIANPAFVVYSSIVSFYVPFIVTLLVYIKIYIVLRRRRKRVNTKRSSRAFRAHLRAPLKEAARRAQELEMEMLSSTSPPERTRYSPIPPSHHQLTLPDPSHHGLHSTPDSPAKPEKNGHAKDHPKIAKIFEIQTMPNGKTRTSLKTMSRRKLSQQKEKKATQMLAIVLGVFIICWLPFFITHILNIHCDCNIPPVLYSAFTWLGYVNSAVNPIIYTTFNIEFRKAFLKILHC

In the case of `O=C1Nc2cc(OCCCCN3CCN(c4cccc(Cl)c4Cl)CC3)ccc2C2CC12` (centres unmarked) [Example 1, 5-(4-(4-(2,3-Dichlorophenyl)piperazin-1-yl)butoxy)-3,7b-dihydro-1H-cyclopropa[c]quinolin-2(1aH)-one], the EC50 (D2S receptor; cAMP, forskolin 5×10^−7 M) is reported as 0.97 nM, the “D2S Max Act %” value (D2S receptor; positive control dopamine 1×10^−7 M) is reported as 114.9% and the EC50 (5-HT1A receptor; cAMP, forskolin 2.5×10^−7 M) is reported as 1010 nM. For the same compound, the “5-HT1A Max Act %” value (5-HT1A receptor; positive control serotonin 10^−6 M) was 50.2%, the IC50 (5-HT2A receptor; calcium flux, antagonism of serotonin) was 731 nM and the “5-HT2A Max Inh %” value (5-HT2A receptor; positive control ketanserin 10^−7 M) was 98.4%. The EC50 (D2L receptor; cAMP, forskolin 0.5 μM) was 0.62 nM and the “D2L Max Act %” value (D2L receptor; positive control dopamine 1 μM) was 54.4%.
